Results taken from patent US20220041588A1, “SUBSTITUTED IMIDAZO[1,2-A]PYRIDINE AND [1,2,4]TRIAZOLO[1,5-A]PYRIDINE COMPOUNDS AS RET KINASE INHIBITORS” (FOCHON PHARMACEUTICALS, LTD., priority 2018, published 2022).

How the values were obtained:
[1] = tested on: TT (RET C634W) cells; assay: Cell proliferation assay (MTS), TT cells; type: cell-based; conditions: 72 h incubation, MTS readout
How it was run: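 TT cells (F12K, 10% FBS) and LC-2/ad cells (HamF12:RPMI1640 1:1, 10% FBS, 2 mM glutamine) were seeded at 5000/well for 24 h. They were then treated 72 h at 37 °C with nine final concentrations from 10000 to 1.5 nM. MTS was read after 2 h, SDS-stopped, at 490 nm (650 nm reference), and IC50 calculated.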

[2] = tested on: LC-2/ad (CCDCl6-RET) cells; assay: Cell proliferation assay (MTS), LC-2/ad cells; type: cell-based; conditions: LC-2/ad cells (CCDCl6-RET), 72 h incubation, MTS readout
Protocol: MTS testing kit was purchased from Promega. The RPMI-1640, F12, F12K, Fetal bovine serum and Penicillin-Streptomycin were purchased from BI. Glutamine and Dimethyl sulfoxide (DMSO) were purchased from Sigma. TT cells were cultured in F12K supplemented with 10% FBS and LC-2/ad cells were cultured in HamF12: RPMI1640 (1:1) supplemented with 10% FBS and 2 mM Glutamine.
To investigate whether a compound is able to inhibit the activity of RET fusion and/or mutation in cells, a mechanism-based assay using TT (RET C634W) and LC-2/ad (CCDCl6-RET) cell lines was developed. In this assay, the inhibition of RET fusion and/or mutation was reflected by the inhibition of cell proliferation of TT and LC-2/ad cells. Cells were plated into 96-well plates at the optimized cell density (TT: 5000 cells/well; LC-2/ad: 5000 cells/well). Plates were incubated at 37° C., with 5% CO2 for 24 h. Compounds were serially diluted and added to the plates with the final concentrations as 10000, 3333.3, 1111.1, […], 123.5, 41.2, 13.7, 4.6 and 1.5 nM. Plates were incubated at 37° C., with 5% CO2 for 72 h. An aliquot of 20 μL MTS/100 μL medium mixture solution were added to each well and the plates were incubated for exactly 2 h. The reaction was stopped by adding 25 μL 10% SDS to each well. The absorbance was measured by a microplate reader at 490 nm and 650 nm (reference wavelength). IC50 was calculated using GraphPad Prism 5.0.

SMILES | IC50 ([1]; Homo sapiens, TT, 72 h) [nM] | IC50 ([2]; Homo sapiens, LC-2-ad, 72 h) [nM] | IC50 [1] [nM] | IC50 [2] [nM]
CC(C)CC(=O)N1CCN(c2ccc(-c3cc(-c4cnn(C)c4)cc4ncc(C#N)n34)cn2)CC1 [Example 48, 7-(1-methyl-1H-pyrazol-4-yl)-5-(6-(4-(3-methylbutanoyl)piperazin-1-yl)pyridin-3-yl)imidazo[1,2-a]pyridine-3-carbonitrile] | 77 | 50 | – | –
COC(CNC(=O)N1CCN(c2ccc(-c3cc(-c4cnn(C)c4)cc4ncc(C#N)n34)cn2)CC1)C(C)C (centres unmarked) [Example 50, 4-(5-(3-cyano-7-(1-methyl-1H-pyrazol-4-yl)imidazo[1,2-a]pyridin-5-yl)pyridin-2-yl)-N-(2-methoxy-3-methyl-butyl)piperazine-1-carboxamide] | 14 | 30 | – | –
CC(C)OCCN1CCN(c2ccc(-c3cc(-c4cnn(C)c4)cc4ncc(C#N)n34)cn2)CC1 [Example 51, 5-(6-(4-(2-isopropoxyethyl)piperazin-1-yl)pyridin-3-yl)-7-(1-methyl-1H-pyrazol-4-yl)imidazo[1,2-a]pyridine-3-carbonitrile] | 44 | 40 | – | –
Cn1cc(-c2cc(-c3ccc(N4CCN(Cc5ccccn5)CC4)nc3)n3c(C#N)cnc3c2)cn1 [Example 52, 7-(1-methyl-1H-pyrazol-4-yl)-5-(6-(4-(pyridin-2-ylmethyl)piperazin-1-yl)pyridin-3-yl)imidazo[1,2-a]pyridine-3-carbonitrile] | 24 | 42 | – | –
COc1ccc(CN2C3CC2CN(c2ccc(-c4cc(OCC5(O)CC5)cc5ncc(C#N)n45)cn2)C3)cn1 [Example 57A, 7-((1-Hydroxycyclopropyl)methoxy)-5-(6-(6-((6-methoxypyridin-3-yl)methyl)-3,6-diazabicyclo[3.1.1]heptan-3-yl)pyridin-3-yl)imidazo[1,2-a]pyridine-3-carbonitrile] | – | 81 | 33 | –
COc1ccc(CN2C3CC2CN(c2ccc(-c4cc(OCC5(O)CC5)cc5ncc(C#N)n45)cn2)C3)cn1 [Example 57B, 7-((1-Hydroxycyclopropyl)methoxy)-5-(6-(6-((6-methoxypyridin-3-yl)methyl)-3,6-diazabicyclo[3.1.1]heptan-3-yl)pyridin-3-yl)imidazo[1,2-a]pyridine-3-carbonitrile] | – | – | 127 | 115
COc1ccc(CN2C3CC2CN(c2ccc(-c4cc(OCCC(O)C(F)(F)F)cc5ncc(C#N)n45)cn2)C3)cn1 (centres unmarked) [Example 59, 5-(6-(6-((6-Methoxypyridin-3-yl)methyl)-3,6-diazabicyclo[3.1.1]heptan-3-yl)pyridin-3-yl)-7-(4,4,4-trifluoro-3-hydroxybutoxy)imidazo[1,2-a]pyridine-3-carbonitrile] | 126 | 64 | – | –
COc1ccc(OC2CCN(c3ccc(-c4cc(OCC(C)(C)O)cc5ncc(C#N)n45)cn3)CC2)cn1 [Example 60, 7-(2-Hydroxy-2-methylpropoxy)-5-(6-(4-((6-methoxypyridin-3-yl)oxy)piperidin-1-yl)pyridin-3-yl)imidazo[1,2-a]pyridine-3-carbonitrile] | 3 | 9 | – | –
CC(C)(O)COc1cc(-c2ccc(N3CCC(Oc4ccccn4)CC3)nc2)n2c(C#N)cnc2c1 [Example 64, 7-(2-hydroxy-2-methylpropoxy)-5-(6-(4-(pyridin-2-yloxy)piperidin-1-yl)pyridin-3-yl)imidazo[1,2-a]pyridine-3-carbonitrile] | 87 | 28 | – | –
COc1ccc(OC2CCN(c3ccc(-c4cc(OCC(C)(C)O)cc5ncc(C#N)n45)cn3)CC2)nn1 [Example 65, 7-(2-hydroxy-2-methylpropoxy)-5-(6-(4-((6-methoxypyridazin-3-yl)oxy)piperidin-1-yl)pyridin-3-yl)imidazo[1,2-a]pyridine-3-carbonitrile] | 38 | 34 | – | –
CC(C)(O)COc1cc(-c2ccc(N3CCC(O)(Cc4ccccc4)CC3)nc2)n2c(C#N)cnc2c1 [Example 66, 5-(6-(4-benzyl-4-hydroxypiperidin-1-yl)pyridin-3-yl)-7-(2-hydroxy-2-methylpro-poxy)imidazo[1,2-a]pyridine-3-carbonitrile] | 117 | 55 | – | –
COc1ccc(OC2CCN(c3ccc(-c4cc(OCC5(O)CC5)cc5ncc(C#N)n45)cn3)CC2)cn1 [Example 68, 7-((1-hydroxycyclopropyl)methoxy)-5-(6-(4-((6-methoxypyridin-3-yl)oxy)piperidin-1-yl)pyridin-3-yl)imidazo[1,2-a]pyridine-3-carbonitrile] | 5 | 10 | – | –
COc1ccc(OC2CCN(c3ccc(-c4cc(OCC(O)C(F)(F)F)cc5ncc(C#N)n45)cn3)CC2)cn1 (centres unmarked) [Example 69, 5-(6-(4-((6-methoxypyridin-3-yl)oxy)pi-peridin-1-yl)pyridin-3-yl)-7-(3,3,3-trifluoro-2-hydroxypropoxy)imidazo[1,2-a]pyri-dine-3-carbonitrile] | 57 | 49 | – | –
